Columns and labels:
Format in all cases: in vivo
Spodoptera littoralis = experiment: Spodoptera littoralis, sprayed cotton leaf discs, L1 larvae; details: foliar, 72 h, cotton leaf discs sprayed at 200 ppm, 3 days after treatment
From the text: Spodoptera littoralis (Egyptian Cotton Leafworm): Cotton leaf discs were placed on agar in a 24-well microtiter plate and sprayed with test solutions at an application rate of 200 ppm. After drying, the leaf discs were infested with 5 L1 larvae. The samples were checked for mortality, feeding behavior, and growth regulation 3 days after treatment (DAT).

Thrips tabaci = experiment: Thrips tabaci, sprayed sunflower leaf discs; details: foliar, 168 h, sunflower leaf discs sprayed at 200 ppm, mixed ages, mortality after 7 days
Experimental: Thrips tabaci (Onion Thrips): Sunflower leaf discs were placed on agar in a 24-well microtiter plate and sprayed with test solutions at an application rate of 200 ppm. After drying, the leaf discs were infested with an […] population of mixed ages. After an incubation period of 7 days, samples were checked for mortality.

Tetranychus urticae = experiment: Tetranychus urticae, sprayed bean leaf discs; details: foliar, 192 h, bean leaf discs sprayed at 200 ppm, mixed ages, checked 8 days later
From the text: Tetranychus urticae (Two-Spotted Spider Mite): Bean leaf discs on agar in 24-well microtiter plates were sprayed with test solutions at an application rate of 200 ppm. After drying, the leaf discs are infested with mite populations of mixed ages. 8 days later, discs are checked for egg mortality, larval mortality, and adult mortality.

Heliothis virescens = experiment: Heliothis virescens, eggs on treated artificial diet; details: 96 h, 200 ppm (concentration in well 18 ppm), 4 days incubation
Experimental: Heliothis virescens (Tobacco Budworm): Eggs (0-24 h old) were placed in 24-well microtiter plate on artificial diet and treated with test solutions at an application rate of 200 ppm (concentration in well 18 ppm) by pipetting. After an incubation period of 4 days, samples were checked for egg mortality, larval mortality, and growth regulation.

Diabrotica balteata = experiment: Diabrotica balteata, L2 larvae on treated artificial diet; details: 120 h, 200 ppm (concentration in well 18 ppm), 5 days incubation
Experimental: Diabrotica balteata (Corn Root Worm): A 24-well microtiter plate (MTP) with artificial diet was treated with test solutions at an application rate of 200 ppm (concentration in well 18 ppm) by pipetting. After drying, the MTPs were infested with L2 larvae (6-10 per well). After an incubation period of 5 days, samples were checked for larval mortality and growth regulation.

Plutella xylostella = experiment: Plutella xylostella, L2 larvae on treated artificial diet; details: 144 h, 200 ppm (concentration in well 18 ppm), 6 days incubation
Experimental: Plutella xylostella (Diamond Back Moth): 24-well microtiter plate (MTP) with artificial diet was treated with test solutions at an application rate of 200 ppm (concentration in well 18 ppm) by pipetting. After drying, the MTPs were infested with L2 larvae (7-12 per well). After an incubation period of 6 days, samples were checked for larval mortality and growth regulation.

Myzus persicae = Myzus persicae (sachet), mixed population, sucrose solution; details: 120 h, application rate 12.5 ppm, mortality 5 days after infestation
From the text: Myzus persicae (Sachet) (Green Peach Aphid) Mixed Population Test compounds were applied by pipette into 24 well plates and mixed with Sucrose solution. The plates were closed with a stretched Parafilm. A plastic stencil with 24 holes is placed onto the plate and infested pea seedlings were placed directly on the Parafilm. The infested plate is closed with a gel blotting paper and another plastic stencil and then turned upside down. 5 days after infestation the samples were checked on mortality. Application rate: 12.5 ppm.

Cc1cc(C2=CC(c3cc(Cl)cc(Cl)c3)(C(F)(F)F)OC2)ccc1C(=O)NC1CC(=NOCC(F)(F)F)C1 (stereo not shown) [Compound A79]
≥ 80%: pest or weed control at 200 ppm (Spodoptera littoralis) | pest or weed control at 200 ppm (Thrips tabaci) | pest or weed control at 200 ppm (Tetranychus urticae) | pest or weed control at 200 ppm (Heliothis virescens) | pest or weed control at 200 ppm (Diabrotica balteata) | pest or weed control at 200 ppm (Plutella xylostella)

Cc1cc(C2=COC(c3cc(Cl)cc(Cl)c3)(C(F)(F)F)C2)ccc1C(=O)Nc1cccc(F)c1 (stereo not shown) [Compound D14]
≥ 80%: pest or weed control at 200 ppm (Spodoptera littoralis) | pest or weed control at 200 ppm (Thrips tabaci) | pest or weed control at 200 ppm (Tetranychus urticae) | pest or weed control at 12.5 ppm (Myzus persicae) | pest or weed control at 200 ppm (Heliothis virescens) | pest or weed control at 200 ppm (Diabrotica balteata) | pest or weed control at 200 ppm (Plutella xylostella)

Cc1cc(C2=COC(c3cc(Cl)cc(Cl)c3)(C(F)(F)F)C2)ccc1C(=O)NC1CC2CCC1C2 (stereo not shown) [Compound D22]
≥ 80%: pest or weed control at 200 ppm (Thrips tabaci) | pest or weed control at 200 ppm (Diabrotica balteata) | pest or weed control at 200 ppm (Plutella xylostella)

Cc1cc(C2=COC(c3cc(Cl)cc(Cl)c3)(C(F)(F)F)C2)ccc1C(=O)NC1CCC1 (stereo not shown) [Compound D23]
≥ 80%: pest or weed control at 200 ppm (Spodoptera littoralis) | pest or weed control at 200 ppm (Thrips tabaci) | pest or weed control at 200 ppm (Tetranychus urticae) | pest or weed control at 12.5 ppm (Myzus persicae) | pest or weed control at 200 ppm (Heliothis virescens) | pest or weed control at 200 ppm (Diabrotica balteata) | pest or weed control at 200 ppm (Plutella xylostella)

CSCC(C)(C)NC(=O)c1ccc(C2=COC(c3cc(Cl)cc(Cl)c3)(C(F)(F)F)C2)cc1C (stereo not shown) [Compound D19]
≥ 80%: pest or weed control at 200 ppm (Spodoptera littoralis) | pest or weed control at 200 ppm (Tetranychus urticae) | pest or weed control at 12.5 ppm (Myzus persicae) | pest or weed control at 200 ppm (Heliothis virescens) | pest or weed control at 200 ppm (Diabrotica balteata) | pest or weed control at 200 ppm (Plutella xylostella)

Cc1cc(C2=COC(c3cc(Cl)cc(Cl)c3)(C(F)(F)F)C2)ccc1C(=O)NCc1ccccc1F (stereo not shown) [Compound D10]
≥ 80%: pest or weed control at 200 ppm (Spodoptera littoralis) | pest or weed control at 200 ppm (Thrips tabaci) | pest or weed control at 200 ppm (Tetranychus urticae) | pest or weed control at 12.5 ppm (Myzus persicae) | pest or weed control at 200 ppm (Heliothis virescens) | pest or weed control at 200 ppm (Diabrotica balteata) | pest or weed control at 200 ppm (Plutella xylostella)

CCCCNC(=O)c1ccc(C2=COC(c3cc(Cl)cc(Cl)c3)(C(F)(F)F)C2)cc1C (stereo not shown) [Compound D3]
≥ 80%: pest or weed control at 200 ppm (Spodoptera littoralis) | pest or weed control at 200 ppm (Thrips tabaci) | pest or weed control at 200 ppm (Tetranychus urticae) | pest or weed control at 12.5 ppm (Myzus persicae) | pest or weed control at 200 ppm (Heliothis virescens) | pest or weed control at 200 ppm (Diabrotica balteata) | pest or weed control at 200 ppm (Plutella xylostella)

N#Cc1cc(C2=CC(c3cc(Cl)cc(Cl)c3)(C(F)(F)F)OC2)ccc1-n1cc(Br)cn1 (stereo not shown) [Compound G2, 2-(4-Bromo-pyrazol-1-yl)-5-[5-(3,5-dichloro-phenyl)-5-trifluoromethyl-2,5-dihydro-furan-3-yl]-benzonitrile]
≥ 80%: pest or weed control at 200 ppm (Spodoptera littoralis)

Cc1cc(C2=COC(c3cc(Cl)cc(Cl)c3)(C(F)(F)F)C2)ccc1C(=O)NCc1ccccc1 (stereo not shown) [Compound D9]
≥ 80%: pest or weed control at 200 ppm (Spodoptera littoralis) | pest or weed control at 200 ppm (Thrips tabaci) | pest or weed control at 200 ppm (Tetranychus urticae) | pest or weed control at 12.5 ppm (Myzus persicae) | pest or weed control at 200 ppm (Heliothis virescens) | pest or weed control at 200 ppm (Diabrotica balteata) | pest or weed control at 200 ppm (Plutella xylostella)

Cc1cc(C2=COC(c3cc(Cl)cc(Cl)c3)(C(F)(F)F)C2)ccc1C(=O)NCc1ccc(Cl)nc1 (stereo not shown) [Compound D13]
≥ 80%: pest or weed control at 200 ppm (Spodoptera littoralis) | pest or weed control at 200 ppm (Tetranychus urticae) | pest or weed control at 12.5 ppm (Myzus persicae) | pest or weed control at 200 ppm (Heliothis virescens) | pest or weed control at 200 ppm (Diabrotica balteata) | pest or weed control at 200 ppm (Plutella xylostella)

Cc1cc(NC(=O)c2ccc(C3=COC(c4cc(Cl)cc(Cl)c4)(C(F)(F)F)C3)cc2C)n(C)n1 (stereo not shown) [Compound D16]
≥ 80%: pest or weed control at 200 ppm (Spodoptera littoralis) | pest or weed control at 200 ppm (Thrips tabaci) | pest or weed control at 12.5 ppm (Myzus persicae) | pest or weed control at 200 ppm (Heliothis virescens) | pest or weed control at 200 ppm (Diabrotica balteata) | pest or weed control at 200 ppm (Plutella xylostella)

Cc1cc(C2=COC(c3cc(Cl)cc(Cl)c3)(C(F)(F)F)C2)ccc1C(=O)NC1(C)CSC1 (stereo not shown) [Compound D18]
≥ 80%: pest or weed control at 200 ppm (Spodoptera littoralis) | pest or weed control at 200 ppm (Thrips tabaci) | pest or weed control at 200 ppm (Tetranychus urticae) | pest or weed control at 12.5 ppm (Myzus persicae) | pest or weed control at 200 ppm (Heliothis virescens) | pest or weed control at 200 ppm (Diabrotica balteata) | pest or weed control at 200 ppm (Plutella xylostella)

CCC(C)NC(=O)c1ccc(C2=COC(c3cc(Cl)cc(Cl)c3)(C(F)(F)F)C2)cc1C (stereo not shown) [Compound D7]
≥ 80%: pest or weed control at 200 ppm (Spodoptera littoralis) | pest or weed control at 12.5 ppm (Myzus persicae) | pest or weed control at 200 ppm (Heliothis virescens) | pest or weed control at 200 ppm (Diabrotica balteata) | pest or weed control at 200 ppm (Plutella xylostella)

Cc1cc(C2=CC(c3cc(Cl)cc(Cl)c3)(C(F)(F)F)OC2)ccc1C(=O)NCc1ccc2c(c1)OCCO2 (stereo not shown) [Compound A44]
≥ 80%: pest or weed control at 200 ppm (Spodoptera littoralis) | pest or weed control at 200 ppm (Heliothis virescens) | pest or weed control at 200 ppm (Diabrotica balteata) | pest or weed control at 200 ppm (Plutella xylostella)

COc1ccc(CNC(=O)c2ccc(C3=COC(c4cc(Cl)cc(Cl)c4)(C(F)(F)F)C3)cc2C)cc1 (stereo not shown) [Compound D12]
≥ 80%: pest or weed control at 200 ppm (Spodoptera littoralis) | pest or weed control at 200 ppm (Thrips tabaci) | pest or weed control at 200 ppm (Tetranychus urticae) | pest or weed control at 12.5 ppm (Myzus persicae) | pest or weed control at 200 ppm (Heliothis virescens) | pest or weed control at 200 ppm (Diabrotica balteata) | pest or weed control at 200 ppm (Plutella xylostella)

Cc1csc(NC(=O)c2ccc(C3=COC(c4cc(Cl)cc(Cl)c4)(C(F)(F)F)C3)cc2C)n1 (stereo not shown) [Compound D17]
≥ 80%: pest or weed control at 200 ppm (Spodoptera littoralis) | pest or weed control at 12.5 ppm (Myzus persicae) | pest or weed control at 200 ppm (Heliothis virescens) | pest or weed control at 200 ppm (Diabrotica balteata) | pest or weed control at 200 ppm (Plutella xylostella)

COCC(C)NC(=O)c1ccc(C2=COC(c3cc(Cl)cc(Cl)c3)(C(F)(F)F)C2)cc1C (stereo not shown) [Compound D4]
≥ 80%: pest or weed control at 200 ppm (Spodoptera littoralis) | pest or weed control at 200 ppm (Thrips tabaci) | pest or weed control at 200 ppm (Tetranychus urticae) | pest or weed control at 12.5 ppm (Myzus persicae) | pest or weed control at 200 ppm (Heliothis virescens) | pest or weed control at 200 ppm (Diabrotica balteata) | pest or weed control at 200 ppm (Plutella xylostella)

Cc1cc(C2=COC(c3cc(Cl)cc(Cl)c3)(C(F)(F)F)C2)ccc1C(=O)NC(C)c1ccccc1 (stereo not shown) [Compound D11]
≥ 80%: pest or weed control at 200 ppm (Spodoptera littoralis) | pest or weed control at 200 ppm (Thrips tabaci) | pest or weed control at 200 ppm (Tetranychus urticae) | pest or weed control at 12.5 ppm (Myzus persicae) | pest or weed control at 200 ppm (Heliothis virescens) | pest or weed control at 200 ppm (Diabrotica balteata) | pest or weed control at 200 ppm (Plutella xylostella)

Cc1cc(C2=COC(c3cc(Cl)cc(Cl)c3)(C(F)(F)F)C2)ccc1C(=O)NCCC(F)(F)F (stereo not shown) [Compound D6]
≥ 80%: pest or weed control at 200 ppm (Spodoptera littoralis) | pest or weed control at 200 ppm (Thrips tabaci) | pest or weed control at 200 ppm (Tetranychus urticae) | pest or weed control at 12.5 ppm (Myzus persicae) | pest or weed control at 200 ppm (Heliothis virescens) | pest or weed control at 200 ppm (Diabrotica balteata) | pest or weed control at 200 ppm (Plutella xylostella)

From US9714228B2, “Dihydrofuran derivatives as insecticidal compounds” (Syngenta Participations AG, priority 2010, dated 2017)
